Target: T1, estradiol receptor (Bos taurus, UniProt P49884)
T1 construct: incubated in suspension with varying concentrations of [^3 H]estradiol and with the uterine supernatant; from tissue; host or cells: uterus (uterine supernatant)
T1 sequence (P49884 1-596): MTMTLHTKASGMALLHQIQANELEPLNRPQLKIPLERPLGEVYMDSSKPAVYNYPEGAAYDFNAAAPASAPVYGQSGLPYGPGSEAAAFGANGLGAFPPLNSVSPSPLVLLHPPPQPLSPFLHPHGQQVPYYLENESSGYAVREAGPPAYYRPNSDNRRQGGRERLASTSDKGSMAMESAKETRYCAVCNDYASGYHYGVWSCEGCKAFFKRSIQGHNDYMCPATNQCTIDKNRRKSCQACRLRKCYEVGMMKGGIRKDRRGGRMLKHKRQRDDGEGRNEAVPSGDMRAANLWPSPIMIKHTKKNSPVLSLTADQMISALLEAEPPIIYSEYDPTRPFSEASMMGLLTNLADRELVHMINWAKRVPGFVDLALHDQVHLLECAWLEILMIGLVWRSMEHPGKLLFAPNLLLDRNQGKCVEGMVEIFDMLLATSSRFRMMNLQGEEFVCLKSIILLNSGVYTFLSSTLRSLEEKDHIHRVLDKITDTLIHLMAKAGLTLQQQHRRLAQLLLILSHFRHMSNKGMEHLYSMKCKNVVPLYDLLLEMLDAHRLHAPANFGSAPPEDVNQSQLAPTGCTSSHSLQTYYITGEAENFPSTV
Assay: Affinity of the estradiol receptor for agarose-estradiol derivatives (incubation with [3H]estradiol and uterine supernatant, reciprocal plots)
Format: binding
Details: free ligand, uterine supernatant, estimated, read-out: dissociation constant
Method: Experiments were performed to estimate the affinity of the estradiol receptor for the macromolecular agarose-estradiol derivatives to compare the relative affinities of the various derivatives. The adsorbents are incubated in suspension with varying concentrations of [^3 H]estradiol and with the uterine supernatant, and the data were plotted in reciprocal plots to estimate the comparative affinities toward the estradiol receptor.

C[C@]12CC[C@@H]3c4ccc(O)cc4CC[C@H]3[C@@H]1CC[C@@H]2OC(=O)CCC(=O)O [17β-estradiol 17-hemisuccinate]
Kd: ~700 nM

Source: patent publication US4411832A, “Polysaccharide matrices comprising macromolecular spacer arms for use as adsorbents in affinity chromatography techniques” (priority 1981, dated 1983)
